The term IC50 denotes the concentration that gives 50% inhibition. Low values mean higher potency, high ones lower potency.

Where a SMILES comes first, the peptide text is derived from it. [ ]: non-standard residue; d: D form. The star is where a group is joined. ξ: configuration not given here. Tle = CC(C)(C)[C@H](N)C(=O)O; ξNva = CCCC(N)C(=O)O; ξA = CC(N)C(=O)O; CF3 = FC(F)(F)*

These results are taken from BindingDB's records for doi:10.1021/jm970104t (Boehringer Ingelheim, 1998).

The target of the test is HCMV protease (Human cytomegalovirus). Kind of test: Micro molar potency to inhibit human cytomegalovirus (HCMV) protease.
Molecule `CN(C)C(=O)C[C@H](NC(=O)[C@@H](NC(=O)CC(C)(C)C)C(C)(C)C)C(=O)N[C@H]1CN(OCc2ccccc2)C1=O` [(S)-N*1*-((S)-1-Benzyloxy-2-oxo-azetidin-3-yl)-2-[(S)-2-(3,3-dimethyl-butyrylamino)-3,3-dimethyl-butyrylamino]-N*4*,N*4*-dimethyl-succinamide] returned an IC50 of 33 µM.
Then `CC(NC(=O)[C@H](CC(=O)N(C)C)NC(=O)[C@@H](NC(=O)CC(C)(C)C)C(C)(C)C)C(=O)C(=O)N(C)C` (stereo partly drawn) [(S)-2-[(S)-2-(3,3-Dimethyl-butyrylamino)-3,3-dimethyl-butyrylamino]-N*1*-(2-dimethylcarbamoyl-1-methyl-2-oxo-ethyl)-N*4*,N*4*-dimethyl-succinamide], with over 300 µM; and `CCCC(NC(=O)[C@H](CC(N)=O)NC(=O)[C@@H](NC(=O)[C@@H](NC(C)=O)C(C)C)C(C)C)C(=O)C(F)(F)F` (stereo partly drawn) [(S)-2-[(S)-2-((S)-2-Acetylamino-3-methyl-butyrylamino)-3-methyl-butyrylamino]-N*1*-[1-(2,2,2-trifluoro-acetyl)-butyl]-succinamide] (Ac-VVN[ξNva]-CF3), with over 300 µM.
Molecule `Cc1ccc2nc(C(=O)C(C)NC(=O)[C@H](CC(=O)N(C)C)NC(=O)[C@@H](NC(=O)CC(C)(C)C)C(C)(C)C)oc2c1` (stereo partly drawn) [(S)-2-[(S)-2-(3,3-Dimethyl-butyrylamino)-3,3-dimethyl-butyrylamino]-N*4*,N*4*-dimethyl-N*1*-[1-methyl-2-(6-methyl-benzooxazol-2-yl)-2-oxo-ethyl]-succinamide] showed a half-inhibitory concentration (IC50) of 0.6 µM.
As to `CC(NC(=O)[C@H](CC(=O)N(C)C)NC(=O)[C@@H](O)C(C)(C)C)C(=O)C(F)(F)F` (stereo partly drawn) [(S)-2-((S)-2-Hydroxy-3,3-dimethyl-butyrylamino)-N*4*,N*4*-dimethyl-N*1*-(3,3,3-trifluoro-1-methyl-2-oxo-propyl)-succinamide], half-maximal inhibition (IC50) required 20 µM.
Under `CC(NC(=O)[C@H](CC(=O)N(C)C)NC(=O)[C@@H](N)C(C)(C)C)C(=O)C(F)(F)F` (stereo partly drawn) [(S)-2-((S)-2-Amino-3,3-dimethyl-butyrylamino)-N*4*,N*4*-dimethyl-N*1*-(3,3,3-trifluoro-1-methyl-2-oxo-propyl)-succinamide] (H-[Tle]-Asp(NMe2)-[ξA]-CF3) stands 12 µM.
